Each structure is given as a SMILES string. Numbered stars: 1 amine (or outer) side, 2 acyl side, 3 side chain; on linkers, the order of the positions; unused ones are H or OH. Bridge positions count the residues as written; N and C are the ends. Square brackets hold non-standard residues; d marks the D form. Peptide text beside a SMILES is read from it. * marks the point of attachment. C20 diacid = O=C(O)CCCCCCCCCCCCCCCCCCC(=O)*; γGlu = O=C(O)[C@H](CCC(=O)[*:2])N[*:1]; Hyp = O=C(O)[C@@H]1C[C@@H](O)CN1

The assay has as its target T1, hAMY3 receptor (Homo sapiens, UniProt O60896+P30988).
T1 sequence (P30988 25-474): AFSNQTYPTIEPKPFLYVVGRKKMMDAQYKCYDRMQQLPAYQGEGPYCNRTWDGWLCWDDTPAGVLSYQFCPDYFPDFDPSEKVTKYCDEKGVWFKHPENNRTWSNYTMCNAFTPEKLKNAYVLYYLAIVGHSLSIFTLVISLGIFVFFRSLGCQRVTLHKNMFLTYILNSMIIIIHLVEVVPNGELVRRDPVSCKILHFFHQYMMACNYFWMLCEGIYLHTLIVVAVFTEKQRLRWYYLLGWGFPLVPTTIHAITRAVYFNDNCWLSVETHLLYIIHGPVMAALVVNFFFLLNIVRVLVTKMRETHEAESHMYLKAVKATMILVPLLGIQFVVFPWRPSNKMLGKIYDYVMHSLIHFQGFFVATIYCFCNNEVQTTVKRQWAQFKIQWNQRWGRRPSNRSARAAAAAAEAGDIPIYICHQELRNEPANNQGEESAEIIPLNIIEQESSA
T1 sequence (O60896 24-148 partner): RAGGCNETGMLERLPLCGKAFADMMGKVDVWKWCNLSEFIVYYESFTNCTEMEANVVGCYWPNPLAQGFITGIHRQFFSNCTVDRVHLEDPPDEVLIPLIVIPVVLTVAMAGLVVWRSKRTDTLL
As to the kind of experiment: cAMP assay for in vitro receptor activation, hAMY3-R. The class given is cell-based. Conditions: cAMP assay, hAMY3 receptor; read-out: hAMY3R EC50. The protocol:
General Protocols for cAMP Assays for Measuring In Vitro Receptor Activation
Cells stably overexpressing the hAMY3 receptor were obtained from Ogeda (now Astellas Pharma), sub-cloned and a monoclonal cell-line with an appropriate assay-window was expanded, aliquoted and frozen.
An aliquot was thawed and plated in DPBS with 0.05% casein and 0.5 mM IBMX as 2000 cells/well in a 384-well format. The cells were then immediately stimulated for 30 min at room temperature with graded doses of test compound using human amylin (Bachem, cat no. H-7905) as a positive control. cAMP accumulation was measured using a Cisbio assay for Gs coupled receptors (cat. no. 62AM4PEC), where the assay reagents were added as per the manufacturer's instructions and time-resolved fluorescence energy transfer recorded after one hour.
(In general: cAMP levels reflect the balance of adenylyl cyclase and phosphodiesterase activity.)
With `CC[C@H](C)[C@H](NC(=O)[C@H](CCC(N)=O)NC(=O)[C@H](Cc1c[nH]cn1)NC(=O)[C@H](C)NC(=O)[C@H](CC(C)C)NC(=O)[C@H](CCCNC(=N)N)NC(=O)[C@H](CCC(N)=O)NC(=O)[C@@H](NC(=O)[C@@H](NC(=O)[C@@H]1CSSC[C@H](NC(=O)[C@@H](N)CCCCN)C(=O)N[C@@H](CC(N)=O)C(=O)N[C@@H](Cc2ccccc2)C(=O)N[C@@H](C)C(=O)N[C@@H]([C@@H](C)O)C(=O)N1)[C@@H](C)O)C(C)C)C(=O)N[C@@H](Cc1ccc(O)cc1)C(=O)N[C@@H](CCC(N)=O)C(=O)N[C@@H](Cc1ccccc1)C(=O)N[C@H](C(=O)N[C@@H](CC(=O)O)C(=O)N[C@@H](CCCCN)C(=O)N[C@@H](CC(=O)O)C(=O)N[C@@H](CCCCN)C(=O)N[C@@H](CC(=O)O)C(=O)N[C@@H](CC(N)=O)C(=O)N[C@H](C(=O)N[C@@H](C)C(=O)N1CCC[C@H]1C(=O)N1CCC[C@H]1C(=O)N[C@H](C(=O)N[C@@H](CCC(=O)O)C(=O)N[C@H](C(=O)NCC(=O)N[C@@H](CO)C(=O)N[C@@H](CC(N)=O)C(=O)NCC(=O)N1CCC[C@H]1C(N)=O)C(C)C)[C@@H](C)O)C(C)C)[C@@H](C)O` [compound 18] (H-KCNFATCTVQRLAHQIYQFTDKDKDNVAPPTEVGSNGP-NH2; disulfide 2-7), the EC50 (as a rule, the concentration that produces a half-maximal response) was 0.008 nM. Next, `CC[C@H](C)[C@H](NC(=O)[C@H](CCC(N)=O)NC(=O)[C@H](Cc1c[nH]cn1)NC(=O)[C@H](C)NC(=O)[C@H](CC(C)C)NC(=O)[C@H](CCCNC(=N)N)NC(=O)[C@H](CCC(N)=O)NC(=O)[C@@H](NC(=O)[C@@H](NC(=O)[C@@H]1CSSC[C@H](NC(=O)[C@@H](N)CCCCN)C(=O)N[C@@H](CC(N)=O)C(=O)N[C@@H]([C@@H](C)O)C(=O)N[C@@H](C)C(=O)N[C@@H]([C@@H](C)O)C(=O)N1)[C@@H](C)O)C(C)C)C(=O)N[C@@H](Cc1ccc(O)cc1)C(=O)N[C@@H](CCC(N)=O)C(=O)N[C@@H](Cc1ccccc1)C(=O)N[C@H](C(=O)N[C@@H](CC(=O)O)C(=O)N[C@@H](CCCCN)C(=O)N[C@@H](CC(=O)O)C(=O)N[C@@H](CCCCN)C(=O)N[C@@H](CC(=O)O)C(=O)N[C@@H](CC(N)=O)C(=O)N[C@H](C(=O)N[C@@H](C)C(=O)N1CCC[C@H]1C(=O)N[C@@H](CCCNC(=N)N)C(=O)N[C@H](C(=O)N[C@@H](CCCCN)C(=O)N[C@H](C(=O)NCC(=O)N[C@@H](CO)C(=O)N[C@@H](CC(N)=O)C(=O)NCC(=O)N[C@@H](Cc1ccc(O)cc1)C(N)=O)C(C)C)[C@@H](C)O)C(C)C)[C@@H](C)O` [compound 34] (H-KCNTATCTVQRLAHQIYQFTDKDKDNVAPRTKVGSNGY-NH2; disulfide 2-7; N-terminus assumed): 0.009 nM; `CC[C@H](C)[C@H](NC(=O)[C@H](CCC(N)=O)NC(=O)[C@H](Cc1ccc(O)cc1)NC(=O)[C@H](C)NC(=O)[C@H](CC(C)C)NC(=O)[C@H](CCCNC(=N)N)NC(=O)[C@H](CCC(N)=O)NC(=O)[C@@H](NC(=O)[C@@H](NC(=O)[C@@H]1CSSC[C@H](NC(=O)[C@H](CCCCN)NC(=O)CC[C@H](NC(=O)CCCCCCCCCCCCCCCCCCC(=O)O)C(=O)O)C(=O)N[C@@H](CC(N)=O)C(=O)N[C@@H]([C@@H](C)O)C(=O)N[C@@H](C)C(=O)N[C@@H]([C@@H](C)O)C(=O)N1)[C@@H](C)O)C(C)C)C(=O)N[C@@H](Cc1ccc(O)cc1)C(=O)N[C@@H](CCC(N)=O)C(=O)N[C@@H](Cc1ccccc1)C(=O)N[C@H](C(=O)N[C@@H](CC(=O)O)C(=O)N[C@@H](CCCCN)C(=O)N[C@@H](CC(=O)O)C(=O)N[C@@H](CCCCN)C(=O)N[C@@H](CC(=O)O)C(=O)N[C@@H](CC(N)=O)C(=O)N[C@H](C(=O)N[C@@H](C)C(=O)N1CCC[C@H]1C(=O)N1CCC[C@H]1C(=O)N[C@H](C(=O)N[C@@H](CC(N)=O)C(=O)N[C@H](C(=O)NCC(=O)N[C@@H](CO)C(=O)N[C@@H](CC(N)=O)C(=O)NCC(=O)N1C[C@H](O)C[C@H]1C(N)=O)C(C)C)[C@@H](C)O)C(C)C)[C@@H](C)O` [compound 47] ({C20 diacid-γGlu}-KCNTATCTVQRLAYQIYQFTDKDKDNVAPPTNVGSNG[Hyp]-NH2; disulfide 2-7): 0.011 nM.

For the molecule `CC[C@H](C)[C@H](NC(=O)[C@H](CCC(N)=O)NC(=O)[C@H](Cc1c[nH]cn1)NC(=O)[C@H](C)NC(=O)[C@H](CC(C)C)NC(=O)[C@H](CCCNC(=N)N)NC(=O)[C@H](CCC(N)=O)NC(=O)[C@@H](NC(=O)[C@@H](NC(=O)[C@@H]1CSSC[C@H](NC(=O)[C@H](CCCCN)NC(=O)CC[C@H](NC(=O)CCCCCCCCCCCCCCCCCCC(=O)O)C(=O)O)C(=O)N[C@@H](CC(N)=O)C(=O)N[C@@H]([C@@H](C)O)C(=O)N[C@@H](C)C(=O)N[C@@H]([C@@H](C)O)C(=O)N1)[C@@H](C)O)C(C)C)C(=O)N[C@@H](Cc1ccc(O)cc1)C(=O)N[C@@H](CCC(N)=O)C(=O)N[C@@H](Cc1ccc(O)cc1)C(=O)N[C@H](C(=O)N[C@@H](CC(=O)O)C(=O)N[C@@H](CCCCN)C(=O)N[C@@H](CC(=O)O)C(=O)N[C@@H](CCCCN)C(=O)N[C@@H](CC(=O)O)C(=O)N[C@@H](CC(N)=O)C(=O)N[C@H](C(=O)N[C@@H](C)C(=O)N1CCC[C@H]1C(=O)N1CCC[C@H]1C(=O)N[C@H](C(=O)N[C@@H](CC(N)=O)C(=O)N[C@H](C(=O)NCC(=O)N[C@@H](CO)C(=O)N[C@@H](CC(N)=O)C(=O)NCC(=O)N1C[C@H](O)C[C@H]1C(N)=O)C(C)C)[C@@H](C)O)C(C)C)[C@@H](C)O` [compound 48] ({C20 diacid-γGlu}-KCNTATCTVQRLAHQIYQYTDKDKDNVAPPTNVGSNG[Hyp]-NH2; disulfide 2-7), the EC50 worked out at 0.011 nM.

As for `CC(C)C[C@H](NC(=O)[C@H](CCCNC(=N)N)NC(=O)[C@H](CCC(N)=O)NC(=O)[C@@H](NC(=O)[C@@H](NC(=O)[C@@H]1CSSC[C@H](NC(=O)CN)C(=O)N[C@@H](CCCNC(=N)N)C(=O)N[C@@H](Cc2ccccc2)C(=O)NCC(=O)N[C@@H]([C@@H](C)O)C(=O)N1)[C@@H](C)O)C(C)C)C(=O)N[C@@H](C)C(=O)N[C@@H](Cc1c[nH]cn1)C(=O)N[C@@H](Cc1ccccc1)C(=O)N[C@@H](CC(C)C)C(=O)N[C@@H](Cc1ccc(O)cc1)C(=O)N[C@@H](CCC(N)=O)C(=O)N[C@@H](Cc1ccccc1)C(=O)N[C@H](C(=O)N[C@@H](CC(=O)O)C(=O)N[C@@H](CCCCN)C(=O)N[C@@H](CC(=O)O)C(=O)N[C@@H](CCCCN)C(=O)N[C@@H](CC(=O)O)C(=O)N[C@@H](CC(N)=O)C(=O)N[C@H](C(=O)N[C@@H](C)C(=O)N1CCC[C@H]1C(=O)N[C@@H](CCCNC(=N)N)C(=O)N[C@H](C(=O)N[C@@H](CC(N)=O)C(=O)N[C@H](C(=O)NCC(=O)N1CCC[C@H]1C(=O)N[C@@H](CCC(N)=O)C(=O)NCC(=O)N[C@@H](Cc1ccc(O)cc1)C(N)=O)C(C)C)[C@@H](C)O)C(C)C)[C@@H](C)O` [compound 54] (H-GCRFGTCTVQRLAHFLYQFTDKDKDNVAPRTNVGPQGY-NH2; disulfide 2-7; N-terminus assumed), the half-maximal effective concentration (EC50) stood at 0.012 nM. For `CC[C@H](C)[C@H](NC(=O)[C@H](CCC(N)=O)NC(=O)[C@H](Cc1c[nH]cn1)NC(=O)[C@H](C)NC(=O)[C@H](CC(C)C)NC(=O)[C@H](CCCNC(=N)N)NC(=O)[C@H](CCC(=O)O)NC(=O)[C@@H](NC(=O)[C@@H](NC(=O)[C@@H]1CSSC[C@H](NC(=O)[C@H](CCCCN)NC(=O)CC[C@H](NC(=O)CCCCCCCCCCCCCCCCCCC(=O)O)C(=O)O)C(=O)N[C@@H](CC(N)=O)C(=O)N[C@@H]([C@@H](C)O)C(=O)N[C@@H](C)C(=O)N[C@@H]([C@@H](C)O)C(=O)N1)[C@@H](C)O)C(C)C)C(=O)N[C@@H](Cc1ccc(O)cc1)C(=O)N[C@@H](CCC(N)=O)C(=O)N[C@@H](Cc1ccccc1)C(=O)N[C@H](C(=O)N[C@@H](CC(=O)O)C(=O)N[C@@H](CCCCN)C(=O)N[C@@H](CC(=O)O)C(=O)N[C@@H](CCCCN)C(=O)N[C@@H](CC(=O)O)C(=O)N[C@@H](CC(N)=O)C(=O)N[C@H](C(=O)N[C@@H](C)C(=O)N1CCC[C@H]1C(=O)N1CCC[C@H]1C(=O)N[C@H](C(=O)N[C@@H](CC(N)=O)C(=O)N[C@H](C(=O)NCC(=O)N[C@@H](CO)C(=O)N[C@@H](CC(N)=O)C(=O)NCC(=O)N1C[C@H](O)C[C@H]1C(N)=O)C(C)C)[C@@H](C)O)C(C)C)[C@@H](C)O` [compound 55] ({C20 diacid-γGlu}-KCNTATCTVERLAHQIYQFTDKDKDNVAPPTNVGSNG[Hyp]-NH2; disulfide 2-7) the value was 0.012 nM.

These data come from patent US12139520B2 (priority 2020, dated 2024).
